Experimental data as given in patent US9115137B2, “2,3,4,5-tetrahydro-1H-pyrido[4,3-B]indole compounds and methods of use thereof” (priority 2008, dated 2015).

How the values were obtained:
[1] = molecular target: T1, human recombinant serotonin (5-Hydroxytryptamine) 5-HT2A receptor (Homo sapiens, UniProt P28223); test: Serotonin 5-HT2A radioligand binding ([3H]Ketanserin); details: compound at 1 μM; CHO-K1 cells; read-out: Serotonin (1 μM) 5-HT2A, percent inhibition of specific binding
T1 construct: expressed in transfected cells; host or cells: CHO-K1 cells
Procedure: To evaluate in radioligand binding assays the activity of compounds of the invention, human recombinant serotonin (5-Hydroxytryptamine) 5-HT2A receptor expressed in Chinese hamster ovary (CHO-K1) cells (Bonhaus, D. W. et al. Br. J. Pharmacol. 115:622, 1995; Saucier, C. and Albert, P. R., J. Neurochem. 68:1998, 1997) in a 50 mM Tris-HCl buffer, pH 7.4, was used. Compounds of the invention were incubated with 0.5 nM [^3H]Ketanserin for 60 minutes at 25° C. Non-specific binding was estimated in the presence of 1 μM Mianserin. Receptor proteins were filtered and washed, the filters were then counted to determine [^3H] Ketanserin specifically bound. Compounds were screened at 1 μM or lower, using 1% DMSO as vehicle. Biochemical assay results are presented as the percent inhibition of specific binding in Table 7.

[2] = molecular target: T2, human recombinant serotonin (5-Hydroxytryptamine) 5-HT7 receptor (Homo sapiens, UniProt P34969); test: Serotonin 5-HT7 radioligand binding ([3H]LSD); details: compound at 1 μM; CHO cells; read-out: Serotonin (1 μM) 5-HT7, percent inhibition of specific binding
T2 construct: expressed in transfected cells; host or cells: CHO cells
Procedure: To evaluate in radioligand binding assays the activity of compounds of the invention, human recombinant serotonin (5-Hydroxytryptamine) 5-HT7 receptor expressed in Chinese hamster ovary (CHO) cells (Roth, B. L. et al., J. Pharmacol. Exp. Ther. 268:1403, 1994; Shen, Y. et al., J. Biol. Chem. 268:18200, 1993) in a modified Tris-HCl buffer (50 mM Tris-HCl, pH 7.4, 10 mM MgCl2, 0.5 mM EDTA) was used. Compounds of invention were incubated with 5.5 nM [^3H] Lysergic acid diethylamide (LSD) for 2 hours at 25° C. Non-specific binding was estimated in the presence of 10 μM Serotonin (5-HT). Receptor proteins were filtered and washed, the filters were then counted to determine [^3H]LSD specifically bound. Compounds were screened at 1 μM or lower, using 1% DMSO as vehicle. Biochemical assay results are presented as the percent inhibition of specific binding in Table 7.

[3] = molecular target: T3, human recombinant adrenergic α2B receptor (Homo sapiens, UniProt P18089); test: Adrenergic α2B radioligand binding ([3H]Rauwolscine); details: compound at 1 μM; CHO-K1 cells; read-out: Adrenergic (1 μM) α2B, percent inhibition of specific binding
T3 construct: expressed in transfected cells; host or cells: CHO-K1 cells
T3 sequence (P18089 1-450): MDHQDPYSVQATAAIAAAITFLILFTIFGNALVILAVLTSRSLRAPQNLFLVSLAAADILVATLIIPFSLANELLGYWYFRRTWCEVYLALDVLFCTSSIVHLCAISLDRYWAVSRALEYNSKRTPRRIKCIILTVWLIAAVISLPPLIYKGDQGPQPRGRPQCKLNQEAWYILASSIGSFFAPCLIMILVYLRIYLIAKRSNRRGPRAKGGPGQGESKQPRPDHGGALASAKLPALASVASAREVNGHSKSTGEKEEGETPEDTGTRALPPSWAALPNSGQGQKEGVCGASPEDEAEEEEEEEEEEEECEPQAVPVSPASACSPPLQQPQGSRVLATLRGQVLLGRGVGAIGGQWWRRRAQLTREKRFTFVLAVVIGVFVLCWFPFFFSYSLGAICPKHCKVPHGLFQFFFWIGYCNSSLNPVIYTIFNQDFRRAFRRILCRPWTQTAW
Procedure: To evaluate in radioligand binding assays the activity of compounds of the invention, human recombinant adrenergic α2B receptor expressed in Chinese hamster ovary (CHO-K1) cells (Uhlen S et al. Eur. J. Pharmacol. 343(1):93, 1998) in a modified Tris-HCl buffer (50 mM Tris-HCl, pH 7.4, 12.5 mM MgCl2, 1 mM EDTA, 0.2% BSA) was used. Compounds of the invention were incubated with 2.5 nM [3H]Rauwolscine for 60 minutes at 25° C. Non-specific binding was estimated in the presence of 10 μM Prozosin. Receptor proteins were filtered and washed, the filters were then counted to determine [^3H]Rauwolscine specifically bound. Compounds were screened at 1 μM or lower, using 1% DMSO as vehicle. Biochemical assay results are presented as the percent inhibition of specific binding in Table 6.

[4] = tested on: rat central imidazoline I2 receptor; test: Central imidazoline I2 radioligand binding ([3H]Idazoxan); details: compound at 1 μM; Wistar Rat cerebral cortex
Procedure: To evaluate in radioligand binding assays the activity of compounds of the invention, rat central imidazoline I2 receptor obtained from Wistar Rat cerebral cortex (Brown, C. M. et al., Br. J. Pharmacol. 99:803, 1990) in a modified Tris-HCl buffer (50 mM Tris-HCl buffer, pH 7.4, 0.5 mM EDTA) was used. Compounds of the invention were incubated with 2 nM [^3H]Idazoxan for 30 minutes at 25° C. Non-specific binding was estimated in the presence of 1 μM Idazoxan. Receptor proteins were filtered and washed, the filters were then counted to determine [^3H]Idazoxan specifically bound. Compounds were screened at 1 μM or lower, using 1% DMSO as vehicle. Compounds of the invention were tested in this biochemical assay and percent inhibition of specific binding was determined. Biochemical assay results are presented as the percent inhibition of specific binding in Table 5.

T1 sequence (P28223 whole entry): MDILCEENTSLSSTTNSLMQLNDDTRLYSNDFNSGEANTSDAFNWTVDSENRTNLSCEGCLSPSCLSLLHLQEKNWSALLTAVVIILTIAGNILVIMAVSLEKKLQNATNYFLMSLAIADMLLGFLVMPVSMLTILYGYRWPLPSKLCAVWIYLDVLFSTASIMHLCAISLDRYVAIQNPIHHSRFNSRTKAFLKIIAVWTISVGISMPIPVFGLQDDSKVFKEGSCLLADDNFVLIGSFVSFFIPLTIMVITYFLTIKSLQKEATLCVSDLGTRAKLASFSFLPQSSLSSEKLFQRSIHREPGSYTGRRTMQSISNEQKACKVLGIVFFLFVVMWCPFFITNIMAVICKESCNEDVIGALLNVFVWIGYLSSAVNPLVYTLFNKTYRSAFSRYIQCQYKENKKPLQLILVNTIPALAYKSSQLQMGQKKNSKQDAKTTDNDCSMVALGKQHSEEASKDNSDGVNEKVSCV
T2 sequence (P34969 whole entry): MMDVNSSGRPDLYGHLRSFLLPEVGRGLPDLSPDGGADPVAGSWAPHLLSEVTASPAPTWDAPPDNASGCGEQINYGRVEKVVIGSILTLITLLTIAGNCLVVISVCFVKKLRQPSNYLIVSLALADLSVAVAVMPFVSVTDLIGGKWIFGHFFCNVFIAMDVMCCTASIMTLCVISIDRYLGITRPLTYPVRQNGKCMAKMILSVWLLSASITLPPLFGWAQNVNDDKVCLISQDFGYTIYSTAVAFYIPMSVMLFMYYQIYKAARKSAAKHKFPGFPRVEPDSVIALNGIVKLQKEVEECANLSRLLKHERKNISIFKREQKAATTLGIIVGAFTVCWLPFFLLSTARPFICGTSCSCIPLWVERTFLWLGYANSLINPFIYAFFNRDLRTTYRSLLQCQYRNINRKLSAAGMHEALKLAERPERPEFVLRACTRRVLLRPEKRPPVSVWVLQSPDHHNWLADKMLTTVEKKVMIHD

SMILES: CCOC(=O)CCn1c2c(c3cc(C)ccc31)CN(C)CC2 [CD1, ethyl 3-(1,2,3,4-tetrahydro-2,8-dimethylpyrido[4,3-b]indol-5-yl)propanoate]
- inhibition at 1 µM [1]: 89%
- inhibition at 1 µM [2]: 85%
- inhibition at 1 µM [3]: 95%
- Imidazoline I2 Central (1 μM), percent inhibition of specific binding [4]: 55%

SMILES: Cc1ccc2c(c1)c1c(n2CC#N)CCN(C)C1 [CD61, 2-(1,2,3,4-tetrahydro-2,8-dimethylpyrido[4,3-b]indol-5-yl)acetonitrile]
- inhibition at 1 µM [1]: 77%
- inhibition at 1 µM [2]: 94%
- inhibition at 1 µM [3]: 89%
- Imidazoline I2 Central (1 μM), percent inhibition of specific binding [4]: 60%

SMILES: C#CCn1c2c(c3cc(C)ccc31)CN(C)CC2 [CD73, 2,8-dimethyl-5-(prop-2-ynyl)-2,3,4,5-tetrahydro-1H-pyrido[4,3-b]indole]
- inhibition at 1 µM [1]: 87%
- inhibition at 1 µM [2]: 91%
- inhibition at 1 µM [3]: 101%
- Imidazoline I2 Central (1 μM), percent inhibition of specific binding [4]: 73%

SMILES: CNC(=O)CCn1c2c(c3cc(C)ccc31)CN(C)CC2 [Compound 1, 3-(1,2,3,4-tetrahydro-2,8-dimethylpyrido[4,3-b]indol-5-yl)-N-methylpropanamide]
- inhibition at 1 µM [1]: 30%
- inhibition at 1 µM [2]: 33%
- inhibition at 1 µM [3]: 51%
- Imidazoline I2 Central (1 μM), percent inhibition of specific binding [4]: 18%

SMILES: CCNC(=O)CCn1c2c(c3cc(C)ccc31)CN(C)CC2 [Compound 2, N-ethyl-3-(1,2,3,4-tetrahydro-2,8-dimethylpyrido[4,3-b]indol-5-yl)propanamide]
- inhibition at 1 µM [1]: 22%
- inhibition at 1 µM [2]: 47%
- inhibition at 1 µM [3]: 55%
- Imidazoline I2 Central (1 μM), percent inhibition of specific binding [4]: 8%

SMILES: Cc1ccc2c(c1)c1c(n2CCC(=O)NC2CCCCC2)CCN(C)C1 [Compound 3, N-cyclohexyl-3-(1,2,3,4-tetrahydro-2,8-dimethylpyrido[4,3-b]indol-5-yl)propanamide]
- inhibition at 1 µM [1]: 63%
- inhibition at 1 µM [2]: 36%
- inhibition at 1 µM [3]: 80%
- Imidazoline I2 Central (1 μM), percent inhibition of specific binding [4]: 27%

SMILES: Cc1ccc2c(c1)c1c(n2CCC(=O)NC2CCCC2)CCN(C)C1 [Compound 4, N-cyclopentyl-3-(1,2,3,4-tetrahydro-2,8-dimethylpyrido[4,3-b]indol-5-yl)propanamide]
- inhibition at 1 µM [1]: 53%
- inhibition at 1 µM [2]: 59%
- inhibition at 1 µM [3]: 93%
- Imidazoline I2 Central (1 μM), percent inhibition of specific binding [4]: 54%

SMILES: CCOC(=O)CCCn1c2c(c3cc(C)ccc31)CN(C)CC2 [Compound 5, ethyl 4-(1,2,3,4-tetrahydro-2,8-dimethylpyrido[4,3-b]indol-5-yl)butanoate]
- inhibition at 1 µM [1]: 91%
- inhibition at 1 µM [2]: 95%
- inhibition at 1 µM [3]: 98%
- Imidazoline I2 Central (1 μM), percent inhibition of specific binding [4]: 53%

SMILES: CCNC(=O)CCCn1c2c(c3cc(C)ccc31)CN(C)CC2 [Compound 6, N-ethyl-4-(1,2,3,4-tetrahydro-2,8-dimethylpyrido[4,3-b]indol-5-yl)butanamide]
- inhibition at 1 µM [1]: 30%
- inhibition at 1 µM [2]: 43%
- inhibition at 1 µM [3]: 36%
- Imidazoline I2 Central (1 μM), percent inhibition of specific binding [4]: 52%

SMILES: Cc1ccc2c(c1)c1c(n2CCNC(=O)OCC(Cl)(Cl)Cl)CCN(C)C1 [Compound 8, 2,2,2-trichloroethyl 2-(1,2,3,4-tetrahydro-2,8-dimethylpyrido[4,3-b]indol-5-yl)ethylcarbamate]
- inhibition at 1 µM [1]: 99%
- inhibition at 1 µM [2]: 75%
- inhibition at 1 µM [3]: 102%
- Imidazoline I2 Central (1 μM), percent inhibition of specific binding [4]: 57%

SMILES: Cc1ccc2c(c1)c1c(n2CCNC(=O)C2CCCNC2)CCN(C)C1 (centres unmarked) [Compound 9, N-(2-(1,2,3,4-tetrahydro-2,8-dimethylpyrido[4,3-b]indol-5-yl)ethyl)piperidine-3-carboxamide]
- inhibition at 1 µM [1]: 15%
- inhibition at 1 µM [2]: -8%
- inhibition at 1 µM [3]: 25%
- Imidazoline I2 Central (1 μM), percent inhibition of specific binding [4]: 9%

SMILES: Cc1ccc2c(c1)c1c(n2C2CCCCC2O)CCN(C)C1 (centres unmarked) [Compound 73, 2-(1,2,3,4-tetrahydro-2,8-dimethylpyrido[4,3-b]indol-5-yl)cyclohexanol]
- inhibition at 1 µM [1]: 50%
- inhibition at 1 µM [2]: 5%
- inhibition at 1 µM [3]: -2%
